Data as given in patent publication US20260078122A1, “INDAZOLE COMPOUNDS AS PKMYT1 KINASE INHIBITORS” (Hoffmann-La Roche Inc., priority 2023, published 2026).

Key:
[1] = Human microsome stability assay; details: 1 μM compound, 0.5 mg/mL liver microsomal protein, 1 mM NADPH, 37° C., 0-30 minutes
[2] = biological target: T1, recombinant human Myt1 (full length PKMYT1) (Homo sapiens, UniProt Q99640); assay: ADP-Glo assay (Myt1 kinase activity)
T1 sequence (Q99640 1-499): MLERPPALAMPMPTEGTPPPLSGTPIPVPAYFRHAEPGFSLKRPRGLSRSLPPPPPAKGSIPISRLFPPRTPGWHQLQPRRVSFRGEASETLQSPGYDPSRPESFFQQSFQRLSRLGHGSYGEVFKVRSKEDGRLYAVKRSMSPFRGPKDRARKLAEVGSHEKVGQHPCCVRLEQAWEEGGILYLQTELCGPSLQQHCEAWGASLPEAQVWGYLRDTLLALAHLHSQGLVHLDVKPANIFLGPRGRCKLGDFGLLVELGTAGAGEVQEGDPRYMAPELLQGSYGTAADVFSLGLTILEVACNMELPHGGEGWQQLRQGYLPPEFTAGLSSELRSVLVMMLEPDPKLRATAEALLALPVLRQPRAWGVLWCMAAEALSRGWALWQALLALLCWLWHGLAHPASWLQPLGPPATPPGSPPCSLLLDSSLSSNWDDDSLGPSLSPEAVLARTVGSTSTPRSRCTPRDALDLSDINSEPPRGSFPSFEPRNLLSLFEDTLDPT

Compound	Clearance of Human microsome [1]	IC50 [2]
Cc1c(C2CC2)nc(Cl)c2c(-c3ccc(F)c4[nH]ncc34)c(N)c(=O)[nH]c12 [Example 162, 3-Amino-5-chloro-7-cyclopropyl-4-(7-fluoro-1H-indazol-4-yl)-8-methyl-1H-1,6-naphthyridin-2-one]		< 10 nM
Cc1c(C2CC2)ncc2c(-c3ccc(F)c4[nH]ncc34)c(N)c(=O)[nH]c12 [Example 165, 3-amino-7-cyclopropyl-4-(7-fluoro-1H-indazol-4-yl)-8-methyl-1H-1,6-naphthyridin-2-one]		< 10 nM
Nc1c(-c2ccc(F)c3[nH]ncc23)c2c(OC(F)F)nc(C3CC3)cc2[nH]c1=O [Example 168, 3-Amino-7-cyclopropyl-5-(difluoromethoxy)-4-(7-fluoro-1H-indazol-4-yl)-1H-1,6-naphthyridin-2-one]		11.2 nM
COc1nc(C2CC2)cc2[nH]c(=O)c(N)c(-c3ccc(F)c4[nH]ncc34)c12 [Example 169, 3-Amino-7-cyclopropyl-4-(7-fluoro-1H-indazol-4-yl)-5-methoxy-1H-1,6-naphthyridin-2-one]		13.4 nM
COc1ncc(F)c2[nH]c(=O)c(N)c(-c3ccc(F)c4[nH]ncc34)c12 [Example 170, 3-amino-8-fluoro-4-(7-fluoro-1H-indazol-4-yl)-5-methoxy-1H-1,6-naphthyridin-2-one]		12.6 nM
COc1ncc(Cl)c2[nH]c(=O)c(N)c(-c3ccc(F)c4[nH]ncc34)c12 [Example 171, 3-Amino-8-chloro-4-(7-fluoro-1H-indazol-4-yl)-5-methoxy-1H-1,6-naphthyridin-2-one]		15.8 nM
COc1c(C)nc(C)c2[nH]c(=O)c(N)c(-c3ccc(F)c4[nH]ncc34)c12 [Example 174, 3-Amino-4-(7-fluoro-1H-indazol-4-yl)-5-methoxy-6,8-dimethyl-1H-1,7-naphthyridin-2-one]		12.7 nM
CCc1cnc(C)c2[nH]c(=O)c(N)c(-c3ccc(F)c4[nH]ncc34)c12 [Example 178, 3-Amino-5-ethyl-4-(7-fluoro-1H-indazol-4-yl)-8-methyl-1H-1,7-naphthyridin-2-one]		18.1 nM
Nc1c(-c2ccc(F)c3[nH]ncc23)c2c(OCc3ccccc3)cnc(Cl)c2[nH]c1=O [Example 180, 3-Amino-5-benzyloxy-8-chloro-4-(7-fluoro-1H-indazol-4-yl)-1H-1,7-naphthyridin-2-one]		22.6 nM
Cc1ncc(OCc2ccccc2)c2c(-c3ccc(F)c4[nH]ncc34)c(N)c(=O)[nH]c12 [Example 181, 3-Amino-5-benzyloxy-4-(7-fluoro-1H-indazol-4-yl)-8-methyl-1H-1,7-naphthyridin-2-one]		20 nM
Cc1ncc(OCC(F)F)c2c(-c3ccc(F)c4[nH]ncc34)c(N)c(=O)[nH]c12 [Example 186, 3-Amino-5-(2,2-difluoroethoxy)-4-(7-fluoro-1H-indazol-4-yl)-8-methyl-1H-1,7-naphthyridin-2-one]		15.8 nM
Cc1ncc(OC2CC2)c2c(-c3ccc(F)c4[nH]ncc34)c(N)c(=O)[nH]c12 [Example 187, 3-Amino-5-(cyclopropoxy)-4-(7-fluoro-1H-indazol-4-yl)-8-methy-1H-1,7-naphthyridin-2-one]		10.8 nM
Cc1ncc(OCCC(F)F)c2c(-c3ccc(F)c4[nH]ncc34)c(N)c(=O)[nH]c12 [Example 188, 3-Amino-5-(3,3-difluoropropoxy)-4-(7-fluoro-1H-indazol-4-yl)-8-methyl-1H-1,7-naphthyridin-2-one]		15 nM
Cc1ncc(OC2CCC2)c2c(-c3ccc(F)c4[nH]ncc34)c(N)c(=O)[nH]c12 [Example 189, 3-Amino-5-(cyclobutoxy)-4-(7-fluoro-1H-indazol-4-yl)-8-methyl-1H-1,7-naphthyridin-2-one]		10.6 nM
CCCOc1cnc(C)c2[nH]c(=O)c(N)c(-c3ccc(F)c4[nH]ncc34)c12 [Example 190, 3-Amino-4-(7-fluoro-1H-indazol-4-yl)-8-methyl-5-propoxy-1H-1,7-naphthyridin-2-one]		15.3 nM
Cc1ncc(OCC2CC2)c2c(-c3ccc(F)c4[nH]ncc34)c(N)c(=O)[nH]c12 [Example 191, 3-Amino-5-(cyclopropylmethoxy)-4-(7-fluoro-1H-indazol-4-yl)-8-methyl-1H-1,7-naphthyridin-2-one]		15.7 nM
Cc1ncc(OC(F)(F)F)c2c(-c3ccc(F)c4[nH]ncc34)c(N)c(=O)[nH]c12 [Example 192, 3-Amino-4-(7-fluoro-1H-indazol-4-yl)-8-methyl-5-(trifluoromethoxy)-1H-1,7-naphthyridin-2-one]		< 10 nM

More lines, now with the values ahead:

Clearance of Human microsome [1]	IC50 [2]	Compound
6.15 mL/min/kg		Nc1c(-c2ccc(F)c3[nH]ncc23)c2ncc(F)cc2[nH]c1=O [Example 004, 3-Amino-7-fluoro-4-(7-fluoro-1H-indazol-4-y1)-1H-1,5-naphthyridin-2-one]
6.15 mL/min/kg		COc1cnc2c(-c3ccc(F)c4[nH]ncc34)c(N)c(=O)[nH]c2c1 [Example 006, 3-Amino-4-(7-fluoro-1H-indazol-4-yl)-7-methoxy-1H-1,5-naphthyridin-2-one]
6.15 mL/min/kg		Cn1cncc1-c1cnc2c(-c3ccc(F)c4[nH]ncc34)c(N)c(=O)[nH]c2c1 [Example 008, 3-Amino-4-(7-fluoro-1H-indazol-4-yl)-7-(3-methylimidazol-4-yl)-1H-1,5-naphthyridin-2-one]
6.15 mL/min/kg		Nc1c(-c2ccc(F)c3[nH]ncc23)c2ncc(-c3ccn[nH]3)cc2[nH]c1=O [Example 009, 3-Amino-4-(7-fluoro-1H-indazol-4-yl)-7-(1H-pyrazol-5-yl)-1H-1,5-naphthyridin-2-one]
6.15 mL/min/kg		Nc1c(-c2ccc(F)c3[nH]ncc23)c2ncc(-c3ccnnc3)cc2[nH]c1=O [Example 012, 3-Amino-4-(7-fluoro-1H-indazol-4-yl)-7-pyridazin-4-yl-1H-1,5-naphthyridin-2-one]
6.15 mL/min/kg		Nc1c(-c2ccc(F)c3[nH]ncc23)c2ncc(-c3ccc(F)cn3)cc2[nH]c1=O [Example 014, 3-Amino-4-(7-fluoro-1H-indazol-4-yl)-7-(5-fluoro-2-pyridyl)-1H-1,5-naphthyridin-2-one]
8.06 mL/min/kg		Nc1c(-c2ccc(F)c3[nH]ncc23)c2ncc(-c3nccs3)cc2[nH]c1=O [Example 016, 3-Amino-4-(7-fluoro-1H-indazol-4-yl)-7-thiazol-2-yl-1H-1,5-naphthyridin-2-one]
6.15 mL/min/kg		Nc1c(-c2ccc(F)c3[nH]ncc23)c2ncc(N3CCOCC3)cc2[nH]c1=O [Example 019, 3-Amino-4-(7-fluoro-1H-indazol-4-yl)-7-morpholino-1H-1,5-naphthyridin-2-one]
6.15 mL/min/kg		CC(C)(O)c1cnc2c(-c3ccc(F)c4[nH]ncc34)c(N)c(=O)[nH]c2c1 [Example 020, 3-Amino-4-(7-fluoro-1H-indazol-4-yl)-7-(1-hydroxy-1-methyl-ethyl)-1H-1,5-naphthyridin-2-one]
8.58 mL/min/kg		Cc1cc2[nH]c(=O)c(N)c(-c3ccc(F)c4[nH]ncc34)c2nc1NC(C)C [Example 023, 3-Amino-4-(7-fluoro-1H-indazol-4-yl)-6-(isopropylamino)-7-methyl-1H-1,5-naphthyridin-2-one]
6.22 mL/min/kg		Cc1cnc2c(-c3cccc4[nH]ncc34)c(N)c(=O)[nH]c2c1 [Example 033, 3-Amino-4-(1H-indazol-4-yl)-7-methyl-1H-1,5-naphthyridin-2-one]
6.15 mL/min/kg		Nc1c(-c2cccc3[nH]ncc23)c2ncc(C3CC3)cc2[nH]c1=O [Example 034, 3-Amino-7-cyclopropyl-4-(1H-indazol-4-yl)-1H-1,5-naphthyridin-2-one]
6.15 mL/min/kg		Nc1c(-c2cc(F)cc3[nH]ncc23)c2ncc(Cl)cc2[nH]c1=O [Example 036, 3-Amino-7-chloro-4-(6-fluoro-1H-indazol-4-yl)-1H-1,5-naphthyridin-2-one]
	< 10 nM	Cc1nc(Cl)cc2c(-c3ccc(F)c4[nH]ncc34)c(N)c(=O)[nH]c12 [Example 175, 3-Amino-6-chloro-4-(7-fluoro-1H-indazol-4-yl)-8-methyl-1H-1,7-naphthyridin-2-one]
	14.3 nM	Cc1ncc(Cl)c2c(-c3ccc(F)c4[nH]ncc34)c(N)c(=O)[nH]c12 [Example 176, 3-Amino-5-chloro-4-(7-fluoro-1H-indazol-4-yl)-8-methyl-1H-1,7-naphthyridin-2-one]
	13.9 nM	Cc1ncc(C)c2c(-c3ccc(F)c4[nH]ncc34)c(N)c(=O)[nH]c12 [Example 177, 3-Amino-4-(7-fluoro-1H-indazol-4-yl)-5,8-dimethyl-1H-1,7-naphthyridin-2-one]
	12.5 nM	Cc1ncc(F)c2c(-c3ccc(F)c4[nH]ncc34)c(N)c(=O)[nH]c12 [Example 179, 3-Amino-5-fluoro-4-(7-fluoro-1H-indazol-4-yl)-8-methyl-1H-1,7-naphthyridin-2-one]
	33.3 nM	COCc1cnc(C)c2[nH]c(=O)c(N)c(-c3ccc(F)c4[nH]ncc34)c12 [Example 193, 3-Amino-4-(7-fluoro-1H-indazol-4-yl)-5-(methoxymethyl)-8-methyl-1H-1,7-naphthyridin-2-one]
